# Experimental data reported in patent US8980914B2, “Therapeutic agent for chronic obstructive pulmonary disease and method for treatment for chronic obstructive pulmonary disease with the same” (Mariposa Health Limited, priority 2003, dated 2015).
# Assays:
# [1] = test system: airway hyper-responsiveness induced by peroxynitrite; test: Airway hyper-responsiveness model induced by exposure of peroxynitrite in guinea pigs (lung resistance after histamine); format: in vivo; settings: 30 mg/kg orally one hour before peroxynitrite, histamine 32 μg/kg i.v. on 5-day, control group 759, non-stimulation group 382
# Experimental: This test was performed so as to investigate the pharmacological effect of the 7-aminoquinolinone derivative of the present invention on an airway hyper-responsiveness model induced by exposure of peroxynitrite in guinea pigs. The test procedure will now be described.
# Guinea pigs were fasted for 18 hours or more. The animals were administrated the test substance (30 mg/kg) orally one hour before exposure of peroxynitrite and the neck was dissected under ether anesthesia, and then the trachea was exposed. 0.1 mL of 1 mmol/L peroxynitrite was administered intratracheally into pulmonary side by pushing with air and, after the administration, the incision was sutured and disinfected.
# The measurement of airway hyper-responsiveness was performed on 5-day, taking the day of model preparation 0-day. Guinea pigs were fasted for 18 hours or more. The measurement of lung resistance; (RLung) was performed according to the method of R. E. Giles et al. (R. E. Giles, M. P. Finkel and J. Mazurowski: Use of an Analog On-Line Computer for the Evaluation of Pulmonary Resistance and Dynamic Compliance in the Anesthetized Dog. Arch. Int. Pharmacodyn. 194, 213-222 (1971)). That is, the animals were anesthetized with Nembutal (Trade name: 40 mg/kg, i.v., sodium pentobarbital) and subjected to cannulation into esophagus, trachea and jugular veins (for administration of histamine). The esophagus and trachea cannulas were connected to an artificial respirator (ventilation volume: 6 mL/kg, ventilation frequency: 60 times/min, SN-480-7) and the Rlung was measured after intravenous administration (dose of 0.1 mL/kg) of physiological saline solution and histamine (32 μg/kg) using a total plethysmograph system via flow sensor, connected to Validyne DF45F (for flow rate) and DP45P (for pressure). RLung before administration was determined by averaging values of any 3 out of 20 breaths, RLung after administration of physiological saline solution was determined by averaging values of any 3 out of 5 breaths, and RLung after administration of histamine was determined by averaging values of the following 3 breaths; 1) showing the maximum lung resistance, 2) taken just before and 3) taken just after the one with the maximum lung resistance, out less than 20 breaths. (The extreme values in RLung that occurred when animal moved during the measurement were excluded from the calculations.)
# The percentage of increase in lung resistance was calculated by the following equation. Increase in lung resistance (%)=([RLung after administration of histamine]−[RLung before administration])/[RLung before administration]×100
# [2] = Peroxynitrite scavenging activity (oxidation of dihydrorhodamine 123); format: biochemical; settings: oxidation of dihydrorhodamine 123 by peroxynitrite, phosphate buffer pH 7.4; read-out: 50% Inhibitory concentration on oxidation (IC50)
# Experimental: This test was performed by estimating the antioxidative effect of the test substance using peroxynitrite quantitative method as a test system with dihydrorhodamine 123 so as to confirm the ability of the 7-aminoquinolinone derivatives of the present invention to scavenge peroxynitrite. This is a method described in NITRIC OXIDE: Biology and Chemistry Vol. 1, 145-157, 1997.
# The test substance was weighted in an amount of approximately 10 mg, dissolved in a 10% Tween 80 solution and adjusted to 5×10^−3 mol/L. Then, the solution was diluted with 0.1 mol/L phosphate buffer (pH=7.4) to 5×10^−4 mol/L. The diluent was further diluted stepwise with a phosphate buffer containing 1% Tween 80 to obtain substance solution. The preparation was conducted before use. The final concentration of the test substance was adjusted to 3×10^−6, 1×10^−6, 3×10^−7, 1×10^−7, and 3×10^−8 mol/L, respectively.
# To 20 μL of peroxynitrite solution (manufactured by DOJINDO LABORATORIES), 1980 μL of 0.1 mol/L sodium hydroxide was added and the mixture was diluted 100 times. The absorbance of the maximum absorption wavelength near 300 nm was measured using a UV-visible spectrophotometer and the concentration was calculated according to the following equation. Concentration(mmol/L)=(absorbance/1670)×100×1000
# Based on the concentration calculated in the above section, dilution with a 0.1 mol/L sodium hydroxide solution was conducted and adjusted to 10 mmol/L. 990 μL of a 0.1 mol/L sodium hydroxide solution was taken into a 1.5 mL-Eppen tube. To the Eppen tube, 10 μL of a solution adjusted to 10 mmol/L was added to prepare a 100 μmol/L solution.
# Dihydrorhodamine 123 was dissolved into 1.155 mL of dimethylsulfoxide, and adjusted to the concentration of 25 mmol/L. This solution was dispensed into 20 μL aliquots and then the aliquots were stored in a biomedical freezer (about −20° C.) and used as a stock solution.
# To 490 μL of 0.02% Tween 80 containing 0.1 mol/L phosphate buffer, 10 μL of 25 mmol/L of a thawed dihydrorhodamine 123 stock solution was added to make 500 μmol/L. The prepared solution was diluted with 0.1 mol/L phosphate buffer (pH=7.4) 1000 times to prepare 500 nmol/L of a dihydrorhodamine 123 solution.
# (1) To a 3.5 mL brown vial containing a stirring bar, 1470 μL of a 500 nmol/L dihydrorhodamine 123 solution and then 15 μL of the test substance solution was added. For the blank and control groups, 15 μL of 0.1 mol/L phosphate buffer containing 1% Tween 80, as a solvent for the test substance solution, was added. After the addition, the mixture was stirred with a stirrer for 30 minutes.
# 15 μL of a 100 μmol/L peroxynitrite solution was added while stirring. For the blank group, 15 μL of a 0.1 mol/L sodium hydroxide solution was added. After stirring for 15 minutes, fluorescence intensity was measured.
# Fluorescence intensity of the reaction solution was measured using a spectrophotofluorometer under the following measuring conditions: excitation wavelength, 500 nm; emission wavelength, 536 nm; measuring times, one; response, 1 sec; photomultiplier tube voltage, Low; band width at excitation side, 10 nm; bandwidth at emission side, 10 nm.
# The oxidation rate of dihydrorhodamine 123 when adding the test substance was calculated, taking the oxidation rate of dihydrorhodamine 123 for control as 100, according to the following equation: Oxidation rate (%) of dihydrorhodamine 123=(measured value for each group−measured value for blank)/(measured for control−measured value for blank)×100 Calculation of Oxidation Inhibition Concentration (IC50)
# 50% oxidation concentration, that is 50% oxidation inhibition concentration (IC50) was calculated by giving a straight line from two points surrounding 50% oxidation rate.
# [3] = test system: airway hyper-responsiveness induced by ozone; test: Airway hyper-responsiveness model induced by inhalation of ozone in guinea pigs (lung resistance after methacholine); format: in vivo; settings: RLung after methacholine inhalation 5 hours after end of ozone exposure
# Experimental: This test was performed so as to evaluate the pharmacological effect of the 7-aminoquinolinone derivatives of the present invention in an airway hyper-responsiveness model induced by inhalation of ozone in guinea pigs. The test procedure will now be described.
# Guinea pigs were fasted for 18 hours or more. The animals were administered the test substance (30 mg/kg) and theophylline (100 mg/kg) one hour before ozone inhalation. For the non-stimulation group and the vehicle control group, vehicle (5 mL/kg) was administered similarly.
# The animals were put into an acryl-made chamber (29×19×25 cm), subjected to induction of ozone generated by an ozonizer (EUV3-XU; EBARA JITSUGYO CO, LTD.) and exposed for 2 hours. The ozone concentration in the chamber was approximately 3 ppm. It was confirmed every 30 minutes that this concentration was maintained during exposure by an ozone monitor (EG-5000; EBARA JITSUGYO CO, LTD.) (measured value: 2.53 to 3.40 ppm). For the non-stimulation group, the animals were exposed to a mixed gas (oxygen: 95%, carbonic acid gas: 5%) similarly. The ozone concentration at that time was also confirmed similarly (acceptable concentration: 0.01 ppm or less, measured value: 0.00 to 0.01 ppm).
# The measurement of airway hyper-responsiveness was performed 5 hours after the end of ozone exposure. The measurement of lung resistance (RLung) was performed according to the method of R. E. Giles et al. in the same manner as in Example 2. That is, the animals were anesthetized with Nembutal (Trade name: 50 mg/kg, i.p., sodium pentobarbital) and subjected to cannulation into esophagus and trachea. The esophagus and trachea cannulas were connected to a respirator (ventilation volume: 6 mL/kg, ventilation frequency: 60 times/min, SN-480-7) and the RLung after inhalation of methacholine (100 μg/mL, for 1.5 minutes) was measured by the respiratory function analyzer (PULMOS-II; M.I.P.S) through a flow sensor (connected to Validyle DF45F (for flow rate) and DP45P (for pressure)). The inhalation of methacholine was performed with an ultrasonic nebuliser (NE-U17; Omron Matsuzaka) connected to the respirator under artificial respiration.
# Used RLung represents 10 breaths having a stable value in a range from 1 to 30 breaths after initiation of each measurement for both before inhalation and during methacholine inhalation. The average of the RLung was calculated. The extreme values in RLung that occurred when animal moved during the measurement were excluded from the calculations.
# The percentage of increase of RLung was calculated by the following equation. Increase in lung resistance (%)=([RLung after inhalation of methacholine]−[RLung before administration])/[RLung before administration]×100
# [4] = test substance 30 mg/kg one hour before ozone inhalation
IC50 [2],SMILES,Increase in lung resistance (%) [1],"Increase in lung resistance (%) [3, 4]",Increase in lung resistance (%) ([3]; theophylline 100 mg/kg one hour before ozone inhalation)
960 nM,COc1c(OC(C)=O)c(=O)n(C)c2cc(N)ccc12 [Compound 32],435%,32%,
880 nM,CCCCCCOc1c(O)c2ccc(N)cc2n(C)c1=O [Compound 53],440%,29%,
960 nM,CCCCCCCCOc1c(O)c2ccc(N)cc2n(C)c1=O [Compound 55],425%,26%,
1050 nM,C=CCOc1c(O)c2ccc(N)cc2n(C)c1=O [Compound 56],434%,30%,
810 nM,COc1c(O)c(=O)n(C)c2cc(N)ccc12 [Compound 58],423%,27%,
840 nM,CCCCCCCCOc1c(O)c2ccc(N)cc2n(CC)c1=O [Compound 87],432%,29%,
790 nM,CCCCCCOc1c(O)c2ccc(N)cc2n(CCCCCC)c1=O [Compound 147],429%,29%,
890 nM,CCCCCCCCn1c(=O)c(OC)c(O)c2ccc(N)cc21 [Compound 173],430%,30%,
940 nM,CCCCCCCCn1c(=O)c(O)c(OC)c2ccc(N)cc21 [Compound 181],425%,25%,
890 nM,CCCCCCNc1ccc2c(O)c(OC)c(=O)[nH]c2c1 [Compound 204],439%,37%,
880 nM,CCNc1ccc2c(O)c(OC)c(=O)n(C)c2c1 [Compound 236],428%,28%,
820 nM,CCCCNc1ccc2c(OC)c(O)c(=O)n(CC)c2c1 [Compound 276],430%,30%,
840 nM,CCCCOc1c(O)c2ccc(N(C)C)cc2n(CCCC)c1=O [Compound 303],427%,27%,
800 nM,CCCCn1c(=O)c(O)c(OC)c2ccc(N(C)C)cc21 [Compound 309],435%,34%,
790 nM,CCCCCCn1c(=O)c(OC)c(O)c2ccc(NCC)cc21 [Compound 330],417%,22%,
850 nM,CCCCCCCCn1c(=O)c(OC)c(O)c2ccc(NCC)cc21 [Compound 359],431%,31%,
940 nM,CCCCCCCCOc1c(O)c2ccc(NC(C)=O)cc2n(C)c1=O [Compound 396],421%,22%,
1010 nM,CCCCCCOc1c(O)c(=O)n(C)c2cc(NC(C)=O)ccc12 [Compound 401],420%,25%,
940 nM,CCCCCCOc1c(O)c2ccc(NC=O)cc2n(CCCC)c1=O [Compound 459],427%,26%,
910 nM,COc1c(O)c2ccc(NC(=O)c3ccccc3)cc2n(C)c1=O [Compound 514],434%,31%,
830 nM,CCCCCCCCOc1c(O)c2ccc(NC(=O)c3ccccc3)cc2n(C)c1=O [Compound 519],440%,26%,
790 nM,COc1cc(C=CC(=O)Nc2ccc3c(O)c(OC)c(=O)n(C)c3c2)cc(OC)c1O [Compound 546],422%,27%,
,"Cn1c(=O)c2[nH]cnc2n(C)c1=O [theophylline, reference compound]",,,26%
